Paper PMC3164098, “C-Terminal Substitution of MDM2 Interacting Peptides Modulates Binding Affinity by Distinctive Mechanisms” (PLoS ONE, 2011)
Ends that are not written are not given here.

Tests used:
[1] = target: T1, hexahistidine tagged MDM2 (18–125) (Homo sapiens, UniProt Q00987); experiment: Isothermal titration calorimetry (ITC) of ligands against MDM2; assay type: binding; conditions: PBS pH 7.4, 0.05% TWEEN20, 1% DMSO; for Kd: 10 or 20 µM MDM2 in cell
T1 construct: DNA encoding residues Q18 to N125 of HDM2; made in house; host or cells: E. coli BL21(DE3)
T1 sequence (Q00987 18-125): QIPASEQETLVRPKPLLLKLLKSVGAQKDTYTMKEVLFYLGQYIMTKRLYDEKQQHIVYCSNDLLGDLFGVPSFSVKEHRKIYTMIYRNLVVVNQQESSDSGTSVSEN
Protocol: DNA encoding residues Q18 to N125 of HDM2 were cloned as a NdeI/BamHI fragment into pET19b (Novagen). Recombinant clones carrying the correct insert were identified by DNA sequencing. Plasmid from the identified clone was introduced into E. coli BL21(DE3) and protein production in LB medium was induced with IPTG (1 mM) when the cell density reached OD600 between 0.4 and 0.6. Induced cells were grown at room temperature for 5 h, harvested, and then resuspended in buffer A (50 mM Tris pH 8.0, 10% sucrose). After cell disruption and centrifugation, supernatant was loaded onto a Ni-nitrilotriacetic acid (NTA) column and washed with 5 column volumes of 0.3 M NaCl, 50 mM Tris-HCl pH 8.0, 1 mM DTT. […] The protein was further purified by cation-exchange chromatography (Pharmacia Mono S 5/5, 1 ml/min, 50 mM Tris-HCl pH 7.0, 1 mM DTT) with a 1 M NaCl gradient.
ITC experiments were conducted in a VP-ITC Unit (MicroCal, Northampton, MA). […] All titrations were carried out in 1% DMSO. […] All peptides used were weighed out as solids and dissolved in DMSO. The stock peptide solutions were diluted to their working concentrations in the buffer used for dialysis of the protein. DMSO was carefully added to the MDM2 solution in the VP-ITC cell to buffer match it to the peptide solution. The titration experiments were performed at 20°C with an initial 2 µl injection with duration of 4 s, followed by 28 10 µl injections with a duration of 7.1 s. The spacing between each injection was 150 s. The stirring speed during the titration was 290 rpm. Data was analyzed using Microcal Origin software by fitting to a single-site binding model. Correction for the enthalpy of ligand dilution was carried out by subtracting a linear fit from the last three data points of the titration, after the interaction had reached saturation.

[2] = tested on: N-terminal domain of MDM2; conditions: peptide of residues 12–30 of WT p53, binding to N-terminal domain of MDM2; ref 10 (Zondlo et al.); cited from earlier work
From the text: The molecular interaction of the binding of the MDM2 N-terminal domain to the p53 N-terminus (TA domain) is well understood. Several high-resolution crystal and NMR structures in complex with a variety of peptides and small molecules have been elucidated, [8]. These structural studies indicate that the residues F19, W23 and L26 of the TA domain of p53 are critical for binding to MDM2. Indeed most peptides, peptidomimetics and small molecules that have been developed have indeed emerged as a result of mimicking these interactions. However, it has been known for some time that the other ...

[3] = 293 K (20°C), single-site binding model

| Compound | Kd [1, 3] [nM] | further results |
| --- | --- | --- |
| P27S: P27S substitution in a peptide corresponding to residues 12–30 of the WT p53 sequence (Zondlo et al.) (PPLSQETFSDLWKLLSENN; not fully specified (C-terminus); UniProt P04637 12-30, looked up, variant P27S) | – | fold improvement in Kd over the wild type sequence [2]: ~200 fold |
| CC(C)C[C@H](NC(=O)[C@H](CC(C)C)NC(=O)[C@H](CCCCN)NC(=O)[C@H](Cc1c[nH]c2ccccc12)NC(=O)[C@H](CC(C)C)NC(=O)[C@H](CC(=O)O)NC(=O)[C@H](CO)NC(=O)[C@H](Cc1ccccc1)NC(=O)[C@@H](NC(=O)[C@H](CCC(=O)O)NC(=O)[C@@H](N)CCC(N)=O)[C@@H](C)O)C(=O)N[C@@H](CO)C(N)=O [p53 Ser] | 75.8 ± 10.4 | – |
| CC(C)C[C@H](NC(=O)[C@H](CC(C)C)NC(=O)[C@H](CCCCN)NC(=O)[C@H](Cc1c[nH]c2ccccc12)NC(=O)[C@H](CC(C)C)NC(=O)[C@H](CC(=O)O)NC(=O)[C@H](CO)NC(=O)[C@H](Cc1ccccc1)NC(=O)[C@@H](NC(=O)[C@H](CCC(=O)O)NC(=O)[C@@H](N)CCC(N)=O)[C@@H](C)O)C(=O)N[C@@H](CC(N)=O)C(N)=O [P53 Asn] | 168 ± 9.24 | – |
| Nutlin [Nutlin Racemic, reference compound] | – | ΔG ([1]; binding free energy calculated from the Kd using ΔG = −RTlnKa, 293 K): -8.97 ± 0.15 kcal/mol; ΔH ([1]; enthalpy of binding, 293 K (20°C), single-site binding model): -6.10 ± 0.16 kcal/mol; TΔS ([1]; entropy of binding, 293 K (20°C)): 2.88 kcal/mol |
| MPRFMDYWEGLP-NH2 [12/1Pro] | 213 ± 36.6 | – |
| CC(C)C[C@H](NC(=O)[C@H](CC(C)C)NC(=O)[C@H](CCCCN)NC(=O)[C@H](Cc1c[nH]c2ccccc12)NC(=O)[C@H](CC(C)C)NC(=O)[C@H](CC(=O)O)NC(=O)[C@H](CO)NC(=O)[C@H](Cc1ccccc1)NC(=O)[C@@H](NC(=O)[C@H](CCC(=O)O)NC(=O)[C@@H](N)CCC(N)=O)[C@@H](C)O)C(=O)N[C@@H](C)C(N)=O [p53 Ala] | 112 ± 17.9 | – |
| MPRFMDYWEGLN-NH2 [12/1] | 240 ± 53.8 | – |

Further lines, with some results ahead:

| Kd [1, 3] [nM] | Compound | further results |
| --- | --- | --- |
| 22.9 ± 4.21 | MPRFMDYWEGLT-NH2 [12/1Thr] | – |
| 47.2 ± 11.1 | MPRFMDYWEGLA-NH2 [12/1Ala] | – |
| 18.8 ± 5.03 | CSCC[C@H](NC(=O)[C@H](Cc1ccccc1)NC(=O)[C@H](CCCNC(=N)N)NC(=O)[C@@H]1CCCN1C(=O)[C@@H](N)CCSC)C(=O)N[C@@H](CC(=O)O)C(=O)N[C@@H](Cc1ccc(O)cc1)C(=O)N[C@@H](Cc1c[nH]c2ccccc12)C(=O)N[C@@H](CCC(=O)O)C(=O)NCC(=O)N[C@@H](CC(C)C)C(=O)N[C@@H](CO)C(N)=O [12/1Ser] | – |
| 38.8 ± 7.43 | CC(C)C[C@H](NC(=O)[C@H](CC(=O)O)NC(=O)[C@H](CO)NC(=O)[C@H](Cc1ccccc1)NC(=O)[C@@H](NC(=O)[C@H](CCC(=O)O)NC(=O)[C@@H](N)CCC(N)=O)[C@@H](C)O)C(=O)N[C@@H](Cc1c[nH]c2ccccc12)C(=O)N[C@@H](CCCCN)C(=O)N[C@@H](CC(C)C)C(=O)N[C@@H](CC(C)C)C(=O)N[C@H](C(N)=O)[C@@H](C)O [p53Thr] | – |
